“And” between values parts separate entries of the source, which are not always exact repeats. Identical values can stand only once.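 Protocol summary: plate cells (96-well), add compound at 5 concentrations, incubate 48 h, interpolate endpoints linearly. GI50 is the concentration that inhibits growth by half. The concentration for full growth arrest is given as TGI.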
Tests used:
Experiment in all cases: inhibition of tumour cell growth, NCI panel, 48 h
[1] = system: HCT-15 colon
[2] = system: CAKI-1 renal
[3] = system: HOP-62 NSCLC
[4] = system: OVCAR-8 ovarian
[5] = system: M14 melanoma
[6] = system: UO-31 renal
[7] = system: SK-OV-3 ovarian
[8] = system: SN12C renal
[9] = system: HS 578T breast
[10] = system: MDA-MB-231 breast

Row | SMILES | TGI [1] | TGI [2] | TGI [3] | TGI [4] | TGI [5] | TGI [6] | TGI [7] | TGI [8] | GI50 [1] | GI50 [3] | GI50 [4] | GI50 [5] | GI50 [6] | GI50 [7] | GI50 [9] | TGI [9] | GI50 [8] | GI50 [10] | TGI [10] | GI50 [2]
1 | CN(C)CC1CCC/C1=N\O (centres undefined) | > 100 µM | > 100 µM | > 100 µM | > 100 µM | > 100 µM | > 100 µM | > 100 µM | > 100 µM |  |  |  |  |  |  |  |  |  |  |  | 
2 | COC1C2C=CC(C2)[C@H]1[N+](=O)[O-] (some centres undefined) | > 100 µM | > 100 µM | > 100 µM | > 100 µM | > 100 µM | > 100 µM | > 100 µM | > 100 µM |  |  |  |  |  |  |  |  |  |  |  | 
3 | C[C@]12CCCC(=O)C1(O)C[C@H](C(=O)O)CC2 (some centres undefined) | > 100 µM | > 100 µM | > 100 µM | > 100 µM | > 100 µM | > 100 µM | > 100 µM | > 100 µM |  |  |  |  |  |  |  |  |  |  |  | 
4 | Cc1cc(C)c(C(=O)c2no[n+]([O-])c2C(=O)c2c(C)cc(C)c(Br)c2C)c(C)c1Br | 30 µM | 44.8 µM | 33.4 µM | 27.1 µM | 25.1 µM | 20.2 µM | 52.3 µM | 33.4 µM |  |  |  |  |  |  |  |  |  |  |  | 
5 | COc1ccc(C2=NN(C=O)C(c3cccc(Nc4ccnc5cc(Cl)ccc45)c3)C2)cc1 (centres undefined) | 17 µM |  | 16.6 µM | 27.6 µM | 15.9 µM | 64.6 µM | 23.3 µM | > 100 µM | 2.13 µM | 2.11 µM | 3.29 µM | 2.34 µM | 3.25 µM | 3.33 µM | 3.92 µM | 39.4 µM | 4.45 µM | 4 µM | 97 µM | 
6 | CCOP(=O)(OCC)OC(C#N)c1ccc(-c2ccccc2)cc1 (centres undefined) | 32.8 µM | 47.6 µM | > 100 µM | 37.4 µM | 33.3 µM | > 100 µM | 78.5 µM | 36.8 µM |  |  |  |  |  |  |  |  |  |  |  | 
7 | O=C(N/N=C(/CCN1CCCC1)CC(c1ccccc1)c1c(O)c2ccccc2oc1=O)c1ccncc1 (centres undefined) | > 100 µM | > 100 µM | > 100 µM | > 100 µM | > 100 µM | > 100 µM | > 100 µM | > 100 µM |  |  |  |  |  |  |  |  |  |  |  | 
8 | CC[C@]1(O)C(=O)OCc2c1cc1n(c2=O)Cc2cc3c(N)cccc3nc2-1 | > 100 µM | > 100 µM | > 100 µM | > 100 µM | > 100 µM | > 100 µM | > 100 µM | > 100 µM |  |  |  |  |  |  |  |  |  |  |  | 
9 | O=C1C(c2ccccc2)=[N+]([O-])c2ccccc21 | 37.9 µM |  | 37.4 µM | 32.6 µM | 27 µM | 29.7 µM | 31.4 µM | 34.2 µM |  |  |  |  |  |  |  | 82.9 µM |  |  | 25.4 µM | 
10 | CCN(CC)C(=S)SC | > 100 µM |  | > 100 µM | > 100 µM | > 100 µM |  | > 100 µM | > 100 µM |  |  |  |  |  |  |  | > 100 µM |  |  | > 100 µM | 
11 | COC(=O)[C@]12CCC(C)[C@H](C)[C@H]1C1=CCC3[C@@]4(C)CC[C@H](OC(C)=O)C(C)(C)C4CC[C@@]3(C)C1(C)C(O)C2 (some centres undefined) |  | > 100 µM | > 100 µM | > 100 µM | > 100 µM | > 100 µM | > 100 µM | > 100 µM |  |  |  |  |  |  |  |  |  |  |  | 
12 | CCCCN(CCCC)c1c([N+](=O)[O-])c(=O)nc2ccccn12 | > 100 µM |  | 73.6 µM | 94.6 µM | 83.3 µM | 94 µM | > 100 µM | > 100 µM |  |  |  |  |  |  |  |  |  |  |  | 
13 | CC(=O)NC(CCCCNC(=O)NCCCl)C(=O)NCc1ccccc1 (centres undefined) | > 100 µM | > 100 µM | > 100 µM | > 100 µM | > 100 µM | > 100 µM |  | > 100 µM |  |  |  |  |  |  |  |  |  |  |  | 
14 | COc1ccc(/C=C\c2cc(OC)c(O[Si](C)(C)C(C)(C)C)c(OC)c2)cc1 |  | > 100 µM | > 100 µM | > 100 µM | > 100 µM | > 100 µM | > 100 µM | > 100 µM |  |  |  |  |  |  |  |  |  |  |  | 
15 | CC(=O)OCC(OC(C)=O)C(OC(C)=O)C(OC(C)=O)C(=O)CNn1c(-c2ccccc2Cl)nc2ccccc2c1=O (centres undefined) | > 100 µM | > 100 µM | > 100 µM | > 100 µM | > 100 µM | > 100 µM | > 100 µM | > 100 µM |  |  |  |  |  |  |  |  |  |  |  | 
16 | COC1OC(CO)C(O)C1N (centres undefined) | > 100 µM | > 100 µM | > 100 µM | > 100 µM | > 100 µM |  | > 100 µM | > 100 µM |  |  |  |  |  |  |  |  |  |  |  | 
17 | CN(C)/N=C(/c1nc2ccc(Cl)cc2[nH]c1=O)C(O)c1ccc(C(O)/C(=N\N(C)C)c2nc3ccc(Cl)cc3[nH]c2=O)cc1 (centres undefined) |  | > 100 µM | > 100 µM | > 100 µM | > 100 µM | > 100 µM | > 100 µM | > 100 µM |  |  |  |  |  |  |  |  |  |  |  | 

Row | SMILES | TGI [1] | TGI [2] | TGI [3] | TGI [4] | TGI [5] | TGI [6] | TGI [7] | TGI [8] | GI50 [1] | GI50 [3] | GI50 [4] | GI50 [5] | GI50 [6] | GI50 [7] | GI50 [9] | TGI [9] | GI50 [8] | GI50 [10] | TGI [10] | GI50 [2]
18 | O=C(c1ccncc1)n1nc(-c2ccccc2)c(N=Nc2ccccc2[N+](=O)[O-])c1-c1ccccc1 |  | > 100 µM | > 100 µM | > 100 µM | > 100 µM | 79.9 µM | > 100 µM | > 100 µM |  |  |  |  |  |  |  |  |  |  |  | 
19 | Cc1ccccc1C1=C(C(=O)Nc2ccc(Cl)c(Cl)c2)NC(=S)NC1N (centres undefined) | > 100 µM | > 100 µM |  | > 100 µM | > 100 µM | > 100 µM | > 100 µM | > 100 µM |  |  |  |  |  |  |  |  |  |  |  | 
20 | COC(=O)C(=O)C(C(=O)C(=O)Nc1cccc(C(C)=O)c1)c1nc2ccccc2[nH]c1=O (centres undefined) | > 100 µM | > 100 µM |  |  | > 100 µM | > 100 µM | > 100 µM |  |  |  |  |  |  |  |  |  |  |  |  | 
21 | CCOC(=O)c1cc(/C=C/C(C)=C/C(=O)OC)oc1C | > 100 µM | > 100 µM | > 100 µM | > 100 µM | > 100 µM | > 100 µM | > 100 µM |  |  |  |  |  |  |  |  |  |  |  |  | 
22 | Cc1cccc(C)c1NC(=O)C1C(=O)N(c2c(C)cccc2C)C(=O)/C1=N\NC(N)=S (centres undefined) | > 100 µM |  | > 100 µM | > 100 µM | > 100 µM | > 100 µM |  | > 100 µM |  |  |  |  |  |  |  |  |  |  |  | 
23 | N#CCCN(CCC#N)c1ccc(C(Sc2ccccc2)C(NC(=O)c2cc([N+](=O)[O-])ccc2Cl)C(=O)Sc2ccccc2)cc1 (centres undefined) | 11.2 µM | 5.71 µM and 6.5 µM | 12 µM | 4.95 µM and 3.69 µM | 4.07 µM | 4.77 µM | 13.2 µM | 4.54 µM and 6.19 µM | 2.25 µM | 3.87 µM | 1.63 µM | 1.61 µM | 1.11 µM | 7.8 µM |  |  |  |  |  | 
24 | NC(=S)NNc1c([N+](=O)[O-])cnn(-c2ccccc2)c1=O | 32 µM | 33.9 µM | 34.4 µM | 31.8 µM | 28.4 µM | 38 µM | 36 µM | 31.4 µM |  |  |  |  |  |  |  |  |  |  |  | 
25 | CN1CC[C@]2(C)c3ccc(O)cc3CC3CCCC1C32C (some centres undefined) | > 100 µM | > 100 µM | > 100 µM | > 100 µM | > 100 µM | > 100 µM | > 100 µM | > 100 µM |  |  |  |  |  |  |  |  |  |  |  | 
26 | Cc1ccc(-c2cc(-c3ccccc3)c(C#N)c(=O)n2C2OC(CO)C(O)C(O)C2O)cc1 (centres undefined) | > 100 µM |  | > 100 µM | > 100 µM | > 100 µM | > 100 µM | > 100 µM | > 100 µM |  |  |  |  |  |  |  |  |  |  |  | 
27 | OC1(c2ccccc2)OC(C#Cc2ccccc2)(c2ccccc2)c2ccccc21 (centres undefined) | 13.1 µM | 13.9 µM | 28.8 µM | 5.87 µM | 3.97 µM | 4.05 µM | 5.04 µM | 10.2 µM |  |  |  |  |  |  |  |  |  |  |  | 
28 | CCC1=NC(CO)[C@H](c2ccccc2)O1 (some centres undefined) | > 100 µM | > 100 µM | > 100 µM | > 100 µM |  |  |  | > 100 µM |  |  |  |  |  |  |  |  |  |  |  | 
29 | Cc1cccc(-n2c(=S)[nH]c3c(sc(=O)n3-c3ccccc3C)c2=O)c1 | > 100 µM | > 100 µM | > 100 µM | > 100 µM | > 100 µM | > 100 µM | > 100 µM | > 100 µM |  |  |  |  |  |  |  |  |  |  |  | 
30 | C/C(=N\N(c1ccccc1)c1ccccc1)c1c(O)cc(C)oc1=O | > 100 µM | > 100 µM | > 100 µM | > 100 µM | > 100 µM | > 100 µM | > 100 µM | > 100 µM |  |  |  |  |  |  |  |  |  |  |  | 
31 | COc1ccc(/C=C2\CCCC(C(NO)c3ccc(OC)cc3)C2=NO)cc1 (centres undefined) | > 100 µM | > 100 µM | > 100 µM | > 100 µM | > 100 µM | 75.7 µM | > 100 µM | > 100 µM |  |  |  |  |  |  |  |  |  |  |  | 
32 | NCCCCNc1ccc2c(=O)[nH][nH]c(=O)c2c1 |  | > 100 µM | > 100 µM | > 100 µM | > 100 µM | > 100 µM | > 100 µM | > 100 µM |  |  |  |  |  |  |  |  |  |  |  | 
33 | CC1=C(C(=O)Nc2cccc(Cl)c2)C(c2ccccc2F)C(C(=O)Nc2cccc(Cl)c2)=C(C)N1 |  | 35.9 µM | 31.3 µM | 46.9 µM | 18 µM | 20.8 µM | 55.5 µM | 23 µM |  |  |  |  |  |  |  |  |  |  |  | 
34 | Cc1cc(S(=O)(=O)NC#N)c(S/C(=N\Nc2ccc([N+](=O)[O-])cc2)c2ccc(Cl)cc2)cc1Cl | 59.7 µM | > 100 µM | > 100 µM | > 100 µM | > 100 µM | > 100 µM | 57.6 µM | > 100 µM | 11.6 µM | 41.6 µM | 31.7 µM | 54.5 µM | 34 µM | 17.9 µM | 17.2 µM | 58 µM | > 100 µM |  |  | 36.1 µM
